{
  "source": "patent US8470587B2",
  "about": "“129Xe biosensors and their use” (The Trustees of the University of Pennsylvania, priority 2006, dated 2013)",
  "key": {"[1]": {"conditions": "278 K in C2D2Cl4; cited from earlier work"}, "cells": {"tested_on": "cells", "experiment": "cytotoxicity, standard MTT assay", "format": "cell-based", "conditions": "1-100 μM, 24 h soak, average of four trials", "experimental": "Cytotoxicity was assessed using a standard MTT assay protocol."}, "CAPAN-2": {"tested_on": "CAPAN-2", "experiment": "cellular uptake by confocal microscopy", "format": "cell-based", "conditions": "15 minutes incubation; 2 μM, 2 mM; cells expressing αvβ3 integrin", "experimental": "(§1) Cells were incubated with 2 mM tetraRGD-cryptophane for 15 minutes, washed, and imaged via confocal microscope. […] A-B) CAPAN-2, C-D) HFL-1, E-F) NCI-H1975, G-H) human red blood cells.\n(§2) Cellular uptake was confirmed via confocal microscopy. Cells were incubated with 2 μM tetraRGD-cryptophane for 15 minutes, washed, and imaged via confocal microscope. […] A-B) CAPAN-2, C-D) HFL-1, E-F) NCI-H1975, G-H) human red blood cells."}, "HFL-1": {"tested_on": "HFL-1", "experiment": "cellular uptake by confocal microscopy", "format": "cell-based", "conditions": "15 minutes incubation; 2 μM, 2 mM; cells expressing αvβ3 integrin", "experimental": "as §1, §2"}, "NCI-H1975": {"tested_on": "NCI-H1975", "experiment": "cellular uptake by confocal microscopy", "format": "cell-based", "conditions": "15 minutes incubation; 2 μM, 2 mM; cells expressing αvβ3 integrin", "experimental": "as §1, §2"}, "human red blood cells": {"tested_on": "human red blood cells", "experiment": "cellular uptake by confocal microscopy", "format": "cell-based", "conditions": "15 minutes incubation; 2 μM, 2 mM; cells not expressing αvβ3; listed as tetraRGD-cryptophane", "experimental": "as §1, §2"}, "[2]": {"tested_on": "lung and pancreatic cancer cell lines", "experiment": "cell uptake of tetraRGD Xe biosensor, blocking by cyclic RGD peptide", "format": "cell-based", "description": "Very efficient uptake by Xe biosensors containing tetraRGD was found in lung and pancreatic cancer cell lines, and no uptake by red blood cells, as shown in FIGS. 26 and 27."}},
  "note": "Ends that are not written are not given here.",
  "data": [
    {"compound": "COc1cc2c3cc1OCCOc1cc4c(cc1OC)Cc1cc5c(OC)cc1Cc1cc(c(OC)cc1C4)OCCOc1cc(c(cc1OC)C3)Cc1cc(OC)c(cc1C2)OCCO5", "note": "[cryptophane-A]", "values": [
      {"measurement": "KA of xenon binding", "setting": "[1]", "value": 3900, "unit": "M⁻¹"}
    ]},
    {"compound": "Cy3-labelled ^129Xe biosensor: cryptophane biosensor containing the tetra-RGD peptide (RGDRGDRGDRGD, SEQ ID. No. 30), labeled with Cy3, targeting αvβ3 integrin (also: cryptophane cage conjugated, Cy3 labeled; listed as Homo sapiens)", "values": [
      {"measurement": "cytotoxicity (cell viability relative to healthy controls)", "setting": "cells", "value": "non-toxic"},
      {"measurement": "cytotoxicity (cell viability relative to healthy controls)", "setting": "cells; listed as Cy3 dye-labeled ^129Xe biosensor", "value": "not toxic"},
      {"measurement": "cellular uptake (fluorescence)", "setting": "CAPAN-2", "value": "exhibited fluorescence"},
      {"measurement": "cellular uptake (fluorescence)", "setting": "HFL-1", "value": "exhibited fluorescence"},
      {"measurement": "cellular uptake (fluorescence)", "setting": "NCI-H1975", "value": "exhibited fluorescence"},
      {"measurement": "cellular uptake (fluorescence)", "setting": "human red blood cells", "value": "showed little fluorescence"},
      {"measurement": "cell uptake in presence of cyclic RGD peptide", "setting": "[2]", "value": "blocked"}
    ]}
  ]
}
